Laboratory results published in patent US20220380306A1, “ASTAXANTHIN ESTERS AND METHODS OF USE THEREOF” (CARDAX,INC., priority 2019, published 2022).

Assays:
[1] = Hydrolysis of ADMG compared to ADSa under basic conditions with KOH; assay type: physicochemical; conditions: KOH 55.6 molar equivalents, room temperature
Protocol: KOH was added at 55.6 molar equivalents as a solution in 81:9:10 methanol:dichloromethane:water at room temperature. The solution was analyzed using HPLC over various time points for starting diester (A), hydrolyzed monoester (B) and free astaxanthin (C). Byproduct indicates an impurity formed that is none of A, B, or C.

[2] = Hydrolysis of ADMG compared to ADSa in solution or under basic conditions (NaHCO3 / Na2CO3); assay type: physicochemical; conditions: 16 hours
Protocol: The mixture was stirred at room temperature or 50° C. The reaction was monitored by HPLC and LCMS after 16 hours. […] “Byproduct” indicates a material that was formed other than the diester, monoester, or free astaxanthin.

[3] = methotrexate 15-20 mg/week vs. placebo; cited from earlier work
[4] = 20 mg/D rosuvastatin vs. placebo; patients who achieved a reduction in CRP<2.0; cited from earlier work
IL-1β = IL-1β (Homo sapiens, UniProt P01584); conditions: cited from earlier work
[5] = methanol + saturated aq Na2CO3, rt
[6] = methanol + saturated aq NaHCO3, 50° C.
[7] = methanol + saturated aq NaHCO3, rt
[8] = subjects with a reduction of CRP<2.0 mg/L (regardless of dose)

CC1=C(/C=C/C(C)=C/C=C/C(C)=C/C=C/C=C(C)/C=C/C=C(C)/C=C/C2=C(C)C(=O)[C@@H](OC(=O)CN(C)C)CC2(C)C)C(C)(C)C[C@H](OC(=O)CN(C)C)C1=O [ADMG, Astaxanthin Dimethyl Glycinate Diester]
A (starting diester) ([1]; time 0 hr): 93.7%
B (hydrolyzed monoester) ([1]; time 0 hr): 0.1%
Byproduct ([1]; time 0 hr): 0%
C (free astaxanthin) ([1]; time 0 hr): 0%
A (starting diester) ([1]; time 0.07 hr): 86.4%
B (hydrolyzed monoester) ([1]; time 0.07 hr): 7.3%
Byproduct ([1]; time 0.07 hr): 0%
C (free astaxanthin) ([1]; time 0.07 hr): 0.1%
A (starting diester) ([1]; time 0.65 hr): 36.1%
B (hydrolyzed monoester) ([1]; time 0.65 hr): 44.9%
Byproduct ([1]; time 0.65 hr): 0.1%
C (free astaxanthin) ([1]; time 0.65 hr): 13.2%
A (starting diester) ([1]; time 1.23 hr): 14.4%
B (hydrolyzed monoester) ([1]; time 1.23 hr): 44.6%
Byproduct ([1]; time 1.23 hr): 0.8%
C (free astaxanthin) ([1]; time 1.23 hr): 34.6%
A (starting diester) ([1]; time 1.80 hr): 5.5%
B (hydrolyzed monoester) ([1]; time 1.80 hr): 34.2%
Byproduct ([1]; time 1.80 hr): 1.4%
C (free astaxanthin) ([1]; time 1.80 hr): 53.0%
A (starting diester) ([1]; time 2.38 hr): 2.0%
B (hydrolyzed monoester) ([1]; time 2.38 hr): 23.4%
Byproduct ([1]; time 2.38 hr): 2.0%
C (free astaxanthin) ([1]; time 2.38 hr): 66.6%
A (starting diester) ([1]; time 2.97 hr): 0.7%
B (hydrolyzed monoester) ([1]; time 2.97 hr): 14.9%
Byproduct ([1]; time 2.97 hr): 2.7%
C (free astaxanthin) ([1]; time 2.97 hr): 75.4%
A (starting diester) ([1]; time 3.55 hr): 0.2%
B (hydrolyzed monoester) ([1]; time 3.55 hr): 9.2%
Byproduct ([1]; time 3.55 hr): 3.4%
C (free astaxanthin) ([1]; time 3.55 hr): 80.7%
C (free astaxanthin) ([2]; methanol + saturated aq Na2CO3, 50° C.): 92% C
B (hydrolyzed monoester) [2, 5]: 5% B
C (free astaxanthin) [2, 5]: 90% C
A (starting diester) [2, 6]: 33% A
B (hydrolyzed monoester) [2, 6]: 50% B
C (free astaxanthin) [2, 6]: 23% C
A (starting diester) [2, 7]: 64% A
B (hydrolyzed monoester) [2, 7]: 28% B
C (free astaxanthin) [2, 7]: 2% C
A (starting diester) ([2]; methanol, no base, rt): 75% A
Byproduct ([2]; methanol, no base, rt): 21% byproduct

CN(Cc1cnc2nc(N)nc(N)c2n1)c1ccc(C(=O)N[C@@H](CCC(=O)O)C(=O)O)cc1 [methotrexate]
cardiovascular events compared to placebo [3]: did not result in fewer cardiovascular events
levels of IL-1β, IL-6, or CRP [3]: did not reduce

CC(C)c1nc(N(C)S(C)(=O)=O)nc(-c2ccc(F)cc2)c1/C=C/[C@@H](O)C[C@@H](O)CC(=O)O [rosuvastatin]
reduction in vascular events [4]: 62%

Astaxanthin Sarcosine Diester [ADSa, reference compound]
A (starting diester) ([1]; time 0 hr): 91.4%
B (hydrolyzed monoester) ([1]; time 0 hr): 0.5%
Byproduct ([1]; time 0 hr): 0%
C (free astaxanthin) ([1]; time 0 hr): 0%
A (starting diester) ([1]; time 0.05 hr): 24.0%
B (hydrolyzed monoester) ([1]; time 0.05 hr): 46.8%
Byproduct ([1]; time 0.05 hr): 1.3%
C (free astaxanthin) ([1]; time 0.05 hr): 22.2%
A (starting diester) ([1]; time 0.62 hr): 0%
B (hydrolyzed monoester) ([1]; time 0.62 hr): 0.5%
Byproduct ([1]; time 0.62 hr): 3.8%
C (free astaxanthin) ([1]; time 0.62 hr): 90.8%
A (starting diester) ([2]; methanol, no base, rt): 72% A
Byproduct ([2]; methanol, no base, rt): 16% byproduct

canakinumab: monoclonal antibody that targets IL-1β
deaths from infection (mostly tuberculosis) (IL-1β; active treatment groups vs. placebo): more deaths from infection
CRP and IL-6 levels (IL-1β; patients with active treatment): reduction
lipids (IL-1β; patients with active treatment): no change
reduction in cardiovascular death and all-cause mortality (IL-1β; [8]): 31%
reduction in the primary end point (composite of myocardial infarction, stroke, or cardiovascular death) (IL-1β; [8]): 25%
